From patent US20250312468A1, “ANTI-PROTAC ANTIBODIES AND COMPLEXES” (Merck Patent GmbH, priority 2021, published 2025)

Key:
MDAMB468 cells = experiment: CellTiter-Glo cell viability assay (MIC2-based PAX); details: MDAMB468, complexes at 50% (1:1) loading, three independent experiments
Experimental: 2000 cells per well were seeded into white-opaque 384-well plates followed by overnight incubation in a humid chamber at 37° C. and 5% CO2. […] The assay was developed after 3 days if not otherwise stated using CellTiter-Glo Luminescent Cell Viability Assay as described in the manufacturer's protocol. In brief, the plates were equilibrated to room temperature for 30 minutes. 100 mL CellTiter-Glo Buffer were added to the CellTiter-Glo Substrate Flask and mixed well. 30 μL of the reagent was transferred to each well. After incubation for 3 minutes at room temperature while shaking at 550 rpm, the plate was incubated for another 10 minutes at room temperature. The luminescence was read on an Envision reader. The evaluation was performed using GraphPad Prism 8 by normalization of cells treated with sample to untreated cells. The data were fitted with 4 point logistic curve to determine the IC50 value.

HEPG2 cells = experiment: as above; details: EGFR-negative HEPG2, complexes at 50% loading
Experimental: 2000 cells per well were seeded into white-opaque 384-well plates followed by overnight incubation in a humid chamber at 37° C. and 5% CO2. Complexation was performed as described in chapter 7.4.
The solutions were added to the cells based on the antibody concentration using Tecan D300e dispenser and all wells were normalized to the same volume using 0.3% TW20 in PBS pH 7.4 and DMSO. The assay was developed after 3 days if not otherwise stated using CellTiter-Glo Luminescent Cell Viability Assay as described in the manufacturer's protocol. In brief, the plates were equilibrated to room temperature for 30 minutes. 100 mL CellTiter-Glo Buffer were added to the CellTiter-Glo Substrate Flask and mixed well. 30 μL of the reagent was transferred to each well. After incubation for 3 minutes at room temperature while shaking at 550 rpm, the plate was incubated for another 10 minutes at room temperature. The luminescence was read on an Envision reader. The evaluation was performed using GraphPad Prism 8 by normalization of cells treated with sample to untreated cells. The data were fitted with 4 point logistic curve to determine the IC50 value.

[1] = Storage stability of antibody-PROTAC complexes (DLS, SE-HPLC, visible changes); type: physicochemical; details: no storage time/temperature printed
Experimental: Storage stability of antibody-PROTAC complexes was assessed after complexation (6 mg/ml, 650 rpm, 3 h, rt) by incubation in the fridge at 4° C. over 96 h as well as snap-freezing the complexes and storage at −80° C. for 24 h or at −20° C. at 96 h. Subsequently the samples were checked for visible changes, the polydispersity was assessed using DLS measurements and the loading was measured via SE-HPLC (Table 6). Samples with polydispersity up to 15% are considered monodisperse.

A549 = experiment: CellTiter-Glo cell viability assay (VHH-based PAX); details: A549, PROTAC alone
Experimental: (§1) Several cell viability experiments were performed following the procedure described below: Cells were seeded in different media into white cell culture-treated flat and clear bottom multiwell plates followed by overnight incubation in a humid chamber at 37° C. and 5% CO2. Complexation was performed as described in chapter 7.4.
(§2) The solutions were added to the cells based on the antibody concentration using nanodrop dispension using a Tecan D300e Digital Dispenser and all wells were normalized to the same volume using 0.3% TW20 in PBS pH 7.4 and DMSO to a final solvent concentration of 0.05% DMSO and 0.003% TW20. Incubation was performed at 37° C. at 5% or 10% CO2 dependent on the medium. The assay was developed after 3 days if not otherwise stated using CellTiter-Glo Luminescent Cell Viability Assay as described in the manufacturer's protocol. In brief, the plates were equilibrated to room temperature for 30 minutes. 100 mL CellTiter-Glo Buffer were added to the CellTiter-Glo Substrate Flask and mixed well. 30 μL of the reagent was transferred to each well. After incubation for 3 minutes at room temperature while shaking at 550 rpm, the plate was incubated for another 10 minutes at room temperature. The luminescence was read on an Envision reader from Perkin Elmer. Solvent alone and Bortezomib (1.0E-05 M) served as high control (100% viability) and low control (0% viability), respectively. Raw data were converted into percent cell viability relative to the high and low control, which were set to 100% and 0%, respectively. […] The concentration corresponds to the concentration of PROTACs in the PAX.

NCIN87 = experiment: CellTiter-Glo cell viability assay (VHH-based PAX); details: NCIN87, PROTAC alone
Experimental: as §1, §2

OVCAR3 = experiment: CellTiter-Glo cell viability assay (VHH-based PAX); details: OVCAR3, PROTAC alone
Experimental: as §1, §2

RAMOS cells = experiment: CellTiter-Glo cell viability assay (VHH-based PAX); details: PROTAC alone
Experimental: as §1, §2

SKBR3 = experiment: CellTiter-Glo cell viability assay (VHH-based PAX); details: SKBR3, PROTAC alone
Experimental: as §1, §2

SW620 = experiment: CellTiter-Glo cell viability assay (VHH-based PAX); details: SW620, PROTAC alone
Experimental: as §1, §2

MV411 cells = experiment: CellTiter-Glo cell viability assay (VHH-based PAX); parameters: species or system human; details: MV411, PROTAC alone
Experimental: as §1
The solutions were added to the cells based on the antibody concentration using nanodrop dispension using a Tecan D300e Digital Dispenser and all wells were normalized to the same volume using 0.3% TW20 in PBS pH 7.4 and DMSO to a final solvent concentration of 0.05% DMSO and 0.003% TW20. Incubation was performed at 37° C. at 5% or 10% CO2 dependent on the medium. The assay was developed after 3 days if not otherwise stated using CellTiter-Glo Luminescent Cell Viability Assay as described in the manufacturer's protocol. In brief, the plates were equilibrated to room temperature for 30 minutes. 100 mL CellTiter-Glo Buffer were added to the CellTiter-Glo Substrate Flask and mixed well. 30 μL of the reagent was transferred to each well. After incubation for 3 minutes at room temperature while shaking at 550 rpm, the plate was incubated for another 10 minutes at room temperature. The luminescence was read on an Envision reader from Perkin Elmer. […]

[2] = Pillow, T. H. et al., ChemMedChem 15 (2020) 17-25; cited from earlier work

Cc1ncsc1-c1ccc(CNC(=O)[C@@H]2C[C@@H](O)CN2C(=O)[C@@H](NC(=O)CCCCCCCCCCNC(=O)c2cc3c(cc2CS(C)(=O)=O)-c2cn(C)c(=O)c4[nH]cc(c24)CN3c2ncc(F)cc2F)C(C)(C)C)cc1 [GNE987]
IC50 (MDAMB468 cells): 0.79 nM
IC50 (HEPG2 cells): 3.1 nM
Visible evaluation [1]: precipitation
IC50 (A549): 1.4 nM
IC50 (NCIN87): 0.53 nM
IC50 (OVCAR3): 0.4 nM
IC50 (RAMOS cells): 0.058 nM
IC50 (SKBR3): 0.39 nM
IC50 (SW620): 0.84 nM
IC50 (MV411 cells): < 0.045 nM
half-life reported in literature [2]: 2.8 h
